Source: patent US4550186A, “Binuclear copper (II) carboxylates formed from amine-carboxyboranes” (Duke University, priority 1983, dated 1985)

Experiments:
thymidylate synthetase = thymidylate synthetase (Mus musculus, UniProt P07607); assay: In vitro thymidylate synthetase activity; type: biochemical; settings: 0.25 to 1.0 mM
Procedure: (§1) CF1 male mice (~30 g) were implanted with 2×10^6 Ehrlich ascites tumor cells, intraperitoneally on Day 0. Compound I was suspended by homogenation in 0.05% polysorbate.80-water and administered intraperitoneally at 10 and 20 mg/kg for 9 days to determine its effectiveness for inhibition of tumor growth. Mice were sacrificed on Day 10, and the ascites fluid was collected from the peritoneal cavity. The volume and ascrit (packed cell volume) were determined for each animal and the percent inhibition of tumor growth was calculated. For the metabolic studies, mice were treated on Days 8 and 9 with 10 mg/kg of Compound I, intraperitoneally. […]
(§2) Carbamyl phosphate synthetase activity was determined using the reaction medium of Kalman et al [Am. […] Citrulline formed from ornithine was measured at 490 nm by the method of Archibald [J. Biol. Chem., 156, 121 (1944)]. […] The ^14 CO2 generated in 15 min was trapped in 1M KOH and counted. Thymidylate synthetase activity was determined using a post-mitochondrial supernatant (9000 g×10 min) and 5 μCi of 5-^3 H-deoxyuridine monophosphate (14 Ci/mmol) according to the method of Kampf et al [ J. Med. Chem., 19, 903 (1976)]. ^14 C-Formate incorporation into purines was determined by the method of Spassova et al [Biochem. Pharmacol., 25, 923 (1976)] using 0.5 μCi of ^14 C-formic acid (52.0 mCi/mmol). […] The Rf value for xanthine monophosphate was scraped and counted. […]

[1] = test system: purine de novo synthesis of Ehrlich ascites cells; assay: In vivo formate incorporation into purines; design: species or system mouse
Procedure: as §1, §2

Holtzman male rats = assay: 3H-Cholesterol distribution in rats; type: in vivo, rat; settings: for Orally administered 3H-Cholesterol: 14 days 10 mg/Kg/Day, Treated
Procedure: Holtzman male rats (~350 g) were administered the test agent for 14 days orally. On day 13, 10 μCi of ^3 H-cholesterol (40.7 mCi/mmol) was administered intraperitoneally in mice and orally in rats, and feces were collected for the next 24 hr. Twenty-four hours after cholesterol administration, the major organs were excised and samples of blood, chyme and urine were obtained. Homogenates (10%) were prepared of the tissues which were combusted and counted. Some tissue samples were plated on Whatman #1 filter paper, dried and digested for 24 hr in base at 40° C. and counted. Results were expressed as dpm/mg of wet tissue and dpm/per total organ.

[2] = test system: aspartate transcarbamylase; assay: In vivo aspartate transcarbamylase activity; design: species or system mouse
Procedure: as §1, §2

[3] = 10 mg/kg/day I.P. on Days 8 and 9

Chain of thymidylate synthetase (P07607 whole entry): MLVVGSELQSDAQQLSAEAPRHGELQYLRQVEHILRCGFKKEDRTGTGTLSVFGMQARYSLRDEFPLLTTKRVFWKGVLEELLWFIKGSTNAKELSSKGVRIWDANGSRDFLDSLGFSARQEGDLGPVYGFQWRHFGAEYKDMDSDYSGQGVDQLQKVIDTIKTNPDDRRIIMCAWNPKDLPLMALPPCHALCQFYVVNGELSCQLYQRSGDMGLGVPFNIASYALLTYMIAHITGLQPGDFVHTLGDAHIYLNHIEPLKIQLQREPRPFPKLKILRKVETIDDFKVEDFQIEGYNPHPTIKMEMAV

{Cu[(CH3)3 N.BH2 CO2 ]2.(CH3)3 N.BH2 COOH} [Compound I]
thymidylate synthetase inhibition (thymidylate synthetase): not inhibited | 14C-Formate incorporation into purines [1, 3]: 59 ± 6 % Control | Purine de novo synthesis inhibited ([1]; 10 day Ehrlich ascites cells): 41% | Orally administered 3H-Cholesterol (Holtzman male rats; rat Brain): 15,783 DPM/Total Organ | Orally administered 3H-Cholesterol (Holtzman male rats; rat Chyme): 218,742 DPM/Total Organ | Orally administered 3H-Cholesterol (Holtzman male rats; rat Feces): 294,644 DPM/Total Organ | Orally administered 3H-Cholesterol (Holtzman male rats; rat Heart): 20,060 DPM/Total Organ | Orally administered 3H-Cholesterol (Holtzman male rats; rat Kidney): 565 DPM/Total Organ | Orally administered 3H-Cholesterol (Holtzman male rats; rat Large Intestine): 59,665 DPM/Total Organ | Orally administered 3H-Cholesterol (Holtzman male rats; rat Liver): 27,695 DPM/Total Organ | Orally administered 3H-Cholesterol (Holtzman male rats; rat Lung): 17,106 DPM/Total Organ | Orally administered 3H-Cholesterol (Holtzman male rats; rat Small Intestine): 16,514 DPM/Total Organ | Orally administered 3H-Cholesterol (Holtzman male rats; rat Spleen): 13,241 DPM/Total Organ | Orally administered 3H-Cholesterol (Holtzman male rats; rat Stomach): 33,901 DPM/Total Organ | 3H-cholesterol reduced (dpm/organ vs control) (Holtzman male rats; rat brain): 46% | higher content of cholesterol (Holtzman male rats; rat chyme): 113% | 3H-cholesterol reduced (dpm/organ vs control) (Holtzman male rats; rat heart): 18% | 3H-cholesterol reduced (dpm/organ vs control) (Holtzman male rats; rat kidney): 91% | higher content of cholesterol (Holtzman male rats; rat large intestine): 27% | 3H-cholesterol reduced (dpm/organ vs control) (Holtzman male rats; rat liver): 42% | higher content of cholesterol (Holtzman male rats; rat small intestine): 81% | higher content of cholesterol (Holtzman male rats; rat stomach): 198% | higher content of cholesterol (Holtzman male rats; rat urine): 336% | Aspartate carbamyl transferase activity suppressed [2]: 11% | Aspartate transcarbamylase activity [2, 3]: 89 ± 8 % Control
